Activity calls are given as the source filed them. No cut-off for these calls is given here.
Key:
[1] = target: Acetylcholinesterase (Electrophorus electricus) (UniProt O42275); test: Inhibition of electric eel AChE using acetylthiocholine iodide as substrate at 10 uM preincubated with enzyme for 5 mins prior to substrate addition measured after 5 mins by Ellman's method relative to control
Acetylcholinesterase [2] = target: T1, Acetylcholinesterase (Electrophorus electricus, UniProt O42275); test: Inhibition of electric eel AChE using acetylthiocholine iodide as substrate preincubated with enzyme for 5 mins prior to substrate addition measured after 5 mins by Ellman's method
[3] = target: Cholinesterase (Equus caballus) (UniProt P81908); test: Inhibition of equine serum BChE using butyrylthiocholine iodide as substrate at 10 uM preincubated with enzyme for 5 mins prior to substrate addition measured after 5 mins by Ellman's method relative to control
Cholinesterase [4] = target: T2, Cholinesterase (Equus caballus, UniProt P81908)
Description: Inhibition of equine serum BChE using butyrylthiocholine iodide as substrate preincubated with enzyme for 5 mins prior to substrate addition measured after 5 mins by Ellman's method

Histamine H3 receptor [5] = target: T3, Histamine H3 receptor (Homo sapiens, UniProt Q9Y5N1); test: Displacement of [3H]-N-alpha-methylhistamine from human histamine H3 receptor stably expressed in HEK293 cell membrane after 90 mins
Histamine H3 receptor [6] = target: T3, Histamine H3 receptor; test: Displacement of [125I]Iodoproxyfan from human histamine H3 receptor stably expressed in CHOK1 cells after 60 mins; type: cell-based
Acetylcholinesterase [7] = target: T4, Acetylcholinesterase (Homo sapiens, UniProt P22303); test: Non-competitive inhibition of recombinant human AChE using acetylthiocholine iodide as substrate by Cornish-Bowden plot analysis
Acetylcholinesterase [8] = target: T4, Acetylcholinesterase; test: Non-competitive inhibition of recombinant human AChE using acetylthiocholine iodide as substrate by Lineweaver-Burk plot analysis
Acetylcholinesterase [9] = target: T4, Acetylcholinesterase; test: Inhibition of recombinant human AChE using acetylthiocholine iodide as substrate preincubated with enzyme for 5 mins prior to substrate addition measured after 5 mins by Ellman's method
Acetylcholinesterase [10] = target: T1, Acetylcholinesterase; test: Non-competitive inhibition of electric eel AChE using acetylthiocholine iodide as substrate by Lineweaver-Burk plot analysis
Cholinesterase [11] = target: T2, Cholinesterase; test: Non-competitive inhibition of equine serum BChE using butyrylthiocholine iodide as substrate by Lineweaver-Burk plot analysis
Histamine H3 receptor [12] = target: T3, Histamine H3 receptor; test: Displacement of [125I]Iodoproxyfan from human histamine H3 receptor stably expressed in HEK293 cells after 60 mins; type: cell-based

T3 sequence (Q9Y5N1 whole entry): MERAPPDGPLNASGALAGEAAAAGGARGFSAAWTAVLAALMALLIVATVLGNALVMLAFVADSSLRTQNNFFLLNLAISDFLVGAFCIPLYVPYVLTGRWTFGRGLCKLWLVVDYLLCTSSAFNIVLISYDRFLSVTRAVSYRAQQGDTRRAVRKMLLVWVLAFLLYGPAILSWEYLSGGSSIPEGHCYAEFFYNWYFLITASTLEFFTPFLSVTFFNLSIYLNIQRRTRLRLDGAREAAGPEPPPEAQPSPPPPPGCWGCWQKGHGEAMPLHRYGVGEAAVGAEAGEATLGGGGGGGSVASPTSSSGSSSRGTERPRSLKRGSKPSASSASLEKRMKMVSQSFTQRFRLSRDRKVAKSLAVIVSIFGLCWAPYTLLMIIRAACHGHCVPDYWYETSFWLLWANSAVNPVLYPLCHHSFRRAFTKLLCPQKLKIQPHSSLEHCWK
T1 sequence (O42275 whole entry): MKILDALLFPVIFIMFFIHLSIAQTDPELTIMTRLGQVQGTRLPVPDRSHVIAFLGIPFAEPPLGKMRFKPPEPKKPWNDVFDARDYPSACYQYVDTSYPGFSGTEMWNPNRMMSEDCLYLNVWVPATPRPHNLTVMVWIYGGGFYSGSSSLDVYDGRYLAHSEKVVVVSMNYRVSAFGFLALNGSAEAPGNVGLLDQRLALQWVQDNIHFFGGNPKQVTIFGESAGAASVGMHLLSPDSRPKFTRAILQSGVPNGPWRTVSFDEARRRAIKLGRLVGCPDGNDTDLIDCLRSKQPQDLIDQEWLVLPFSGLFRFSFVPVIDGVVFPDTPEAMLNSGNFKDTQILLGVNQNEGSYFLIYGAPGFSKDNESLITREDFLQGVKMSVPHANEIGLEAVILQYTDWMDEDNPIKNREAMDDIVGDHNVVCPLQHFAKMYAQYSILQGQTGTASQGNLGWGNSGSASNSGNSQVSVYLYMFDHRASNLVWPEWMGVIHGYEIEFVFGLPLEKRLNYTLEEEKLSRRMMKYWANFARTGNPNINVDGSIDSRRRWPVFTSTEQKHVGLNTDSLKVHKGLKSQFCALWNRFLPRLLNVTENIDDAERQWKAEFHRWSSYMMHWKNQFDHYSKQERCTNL
Cholinesterase (Equus caballus), sequence (P81908 whole entry): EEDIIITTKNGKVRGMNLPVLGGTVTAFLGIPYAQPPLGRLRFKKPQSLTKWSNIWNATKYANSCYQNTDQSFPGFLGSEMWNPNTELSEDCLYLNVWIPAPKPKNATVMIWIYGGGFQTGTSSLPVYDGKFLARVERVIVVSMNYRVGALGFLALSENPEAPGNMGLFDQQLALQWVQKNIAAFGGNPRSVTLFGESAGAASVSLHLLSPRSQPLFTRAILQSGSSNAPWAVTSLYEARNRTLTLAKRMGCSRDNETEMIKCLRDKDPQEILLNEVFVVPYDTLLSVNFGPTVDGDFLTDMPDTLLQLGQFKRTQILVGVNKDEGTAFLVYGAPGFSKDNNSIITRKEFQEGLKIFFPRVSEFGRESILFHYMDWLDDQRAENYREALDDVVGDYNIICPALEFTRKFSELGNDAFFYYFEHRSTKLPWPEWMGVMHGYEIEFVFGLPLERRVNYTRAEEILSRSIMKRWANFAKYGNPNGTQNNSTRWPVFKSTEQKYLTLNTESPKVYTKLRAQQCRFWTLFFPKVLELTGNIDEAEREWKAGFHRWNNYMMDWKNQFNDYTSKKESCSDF
T2 sequence (P81908 whole entry): as above
T4 sequence (P22303 whole entry): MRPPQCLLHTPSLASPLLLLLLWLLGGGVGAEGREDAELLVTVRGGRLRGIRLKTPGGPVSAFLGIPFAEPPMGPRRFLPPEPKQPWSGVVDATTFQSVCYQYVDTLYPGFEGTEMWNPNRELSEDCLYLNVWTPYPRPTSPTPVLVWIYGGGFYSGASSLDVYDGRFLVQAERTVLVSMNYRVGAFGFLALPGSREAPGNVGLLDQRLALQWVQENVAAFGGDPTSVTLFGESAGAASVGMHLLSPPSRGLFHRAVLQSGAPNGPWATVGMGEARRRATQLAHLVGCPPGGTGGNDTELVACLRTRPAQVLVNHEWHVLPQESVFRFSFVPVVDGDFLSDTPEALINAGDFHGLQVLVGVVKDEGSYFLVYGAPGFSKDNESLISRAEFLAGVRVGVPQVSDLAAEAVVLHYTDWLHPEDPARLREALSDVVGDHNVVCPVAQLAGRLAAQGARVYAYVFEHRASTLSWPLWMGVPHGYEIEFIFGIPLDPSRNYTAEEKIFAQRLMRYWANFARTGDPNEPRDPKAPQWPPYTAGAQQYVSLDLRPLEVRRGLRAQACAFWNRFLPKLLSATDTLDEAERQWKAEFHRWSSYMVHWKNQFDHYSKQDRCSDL
Acetylcholinesterase (Electrophorus electricus), sequence (O42275 24-633 limits assumed): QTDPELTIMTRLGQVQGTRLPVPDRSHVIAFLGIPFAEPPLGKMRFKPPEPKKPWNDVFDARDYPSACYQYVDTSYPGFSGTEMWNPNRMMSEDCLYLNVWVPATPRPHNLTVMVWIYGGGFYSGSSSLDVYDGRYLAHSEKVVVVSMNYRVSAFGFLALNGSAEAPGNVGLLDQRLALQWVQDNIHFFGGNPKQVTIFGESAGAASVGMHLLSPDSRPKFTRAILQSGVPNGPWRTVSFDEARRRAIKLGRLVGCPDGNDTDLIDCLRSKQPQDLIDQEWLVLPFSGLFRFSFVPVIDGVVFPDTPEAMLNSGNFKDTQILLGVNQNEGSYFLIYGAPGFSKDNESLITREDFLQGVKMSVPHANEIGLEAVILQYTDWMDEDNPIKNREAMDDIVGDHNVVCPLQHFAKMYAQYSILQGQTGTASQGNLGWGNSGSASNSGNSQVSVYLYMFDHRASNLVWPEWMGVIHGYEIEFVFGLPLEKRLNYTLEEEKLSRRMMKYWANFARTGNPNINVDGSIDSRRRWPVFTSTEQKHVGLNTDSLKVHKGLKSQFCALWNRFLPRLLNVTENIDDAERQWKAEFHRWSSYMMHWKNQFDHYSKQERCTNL

Row | Structure (SMILES) | inhibition [1] | IC50 (Acetylcholinesterase [2]) | inhibition [3] | IC50 (Cholinesterase [4]) | Ki (Histamine H3 receptor [5]) | Ki (Histamine H3 receptor [6]) | further results
1 | CC1CCCN(CCCCCCOc2ccc3c(c2)C(=O)CC(c2ccccc2)O3)C1 (centres undefined) | 91.5% | 800 nM | 90.3% | 1900 nM | 523 nM |  | 
2 | C(=C\c1ccccc1)/CN1CCN(CCCOCCCc2ccccc2)CC1 | 0% |  | 37.8% |  |  | 690 nM | 
3 | CCc1ccc(OCCCCCCN2CCCCCC2)cc1 | 30.8% |  | 85.7% | 1900 nM | 84.3 nM |  | 
4 | Cc1ccc2oc(-c3ccc(OCCCCCCN4CCCCC4)cc3)cc(=O)c2c1 | 95.6% | 500 nM | 99.6% | 760 nM | 228 nM |  | inhibition (Acetylcholinesterase [7]): Active; Ki (Acetylcholinesterase [8]): 129 nM; IC50 (Acetylcholinesterase [9]): 360 nM
5 | Cc1ccc2oc(-c3ccc(OCCCCCCN4CCCCCC4)cc3)cc(=O)c2c1 | 95.9% | 460 nM | 99.5% | 440 nM | 160 nM |  | Ki (Acetylcholinesterase [10]): 176 nM; IC50 (Acetylcholinesterase [9]): 480 nM; Ki (Cholinesterase [11]): 281 nM
6 | CCOc1ccccc1N1CCN(CCCOCCCc2ccccc2)CC1 | 3.36% |  | 46% |  |  | > 1000 nM | 
7 | Cc1ccc2oc(-c3ccc(OCCCCCCN4CCCC(C)C4)cc3)cc(=O)c2c1 (centres undefined) | 94% | 800 nM | 99.4% | 1090 nM | 60 nM |  | 
8 | O=C(c1ccc(OCCCN2CCN(c3ccccc3)CC2)cc1)C1CC1 | 7.58% |  | 11.2% |  |  |  | Ki (Histamine H3 receptor [12]): 111 nM
9 | c1ccc(CCCOCCCN2CCN(Cc3ccccc3)CC2)cc1 | 18.8% |  | 33.9% |  |  | > 1000 nM | 
10 | O=C(c1ccc(OCCCN2CCN(C/C=C/c3ccccc3)CC2)cc1)C1CC1 | 8.85% |  | 38.4% |  |  | 83 nM | 
11 | Clc1ccc(CCCOCCCN2CCCCC2)cc1 | 3.04% |  | 55.7% |  |  |  | 
12 | O=C(c1ccccc1Cl)N1CCN(CCCOCC2CCC2)CC1 | 0% |  | 0% |  |  | > 1000 nM | 
13 | CCc1ccc(OCCCCCCN2CCC(C)CC2)cc1 | 23.5% |  | 75.1% | 3920 nM | 181 nM |  | 

Reference: ChEMBL document CHEMBL4373738, “Search for new multi-target compounds against Alzheimer's disease among histamine H3 receptor ligands” (Eur J Med Chem, 2020)
